Data reported in ChEMBL document CHEMBL2169754, “Imidazo[1,2-a]pyridines That Directly Interact with Hepatitis C NS4B: Initial Preclinical Characterization” (ACS Med Chem Lett, 2012).

Experiments:
Hepatitis C virus [1] = assay: Antiviral activity against wild type HCV genotype 1b infected in human HuH7 cells after 48 hrs by luciferase reporter gene assay; format: functional, organism-based, Hepacivirus hominis; settings: Huh-7, 48 h
Hepatitis C virus [2] = assay: Binding affinity to HCV genotype 1b His6-tagged NS4B expressed in baculovirus infected Sf9 cells after overnight incubation; settings: Hepatitis C virus subtype 1b, tested as the 3H-labelled form
Hepatitis C virus [3] = assay: Antiviral activity against wild type HCV genotype 1a infected in human HuH7 cells after 48 hrs by luciferase reporter gene assay; format: functional, organism-based, Hepacivirus hominis; settings: subtype 1a, Huh-7, 48 h
[4] = Half life in Sprague-Dawley rat at 5 mg/kg, po; format: ADME, organism-based; parameters: dose 5 mg/kg, route oral; settings: in vivo
Hepatitis C virus [5] = assay: Displacement of [3H]-3-(1-(3-chloro-6-isopropyl-8-(trifluoromethyl)imidazo[1,2-a]pyridine-2-carbonyl)piperidin-4-yl)oxazolidin-2-one from HCV genotype 1b His6-tagged NS4B expressed in baculovirus infected Sf9 cells after overnight incubation; parameters: species or system Hepatitis C virus subtype 1b
[6] = Volume of distribution at steady state in Sprague-Dawley rat at 1 mg/kg, iv; format: ADME, organism-based; parameters: dose 1 mg/kg, route intravenous; settings: in vivo, read-out: Vdss
[7] = AUC (0 to 24 hrs) in Sprague-Dawley rat at 5 mg/kg, po; format: ADME, organism-based; parameters: time < 24 hr, dose 5 mg/kg, route oral; settings: plasma
[8] = Solubility of the compound; format: physicochemical
[9] = Oral bioavailability in Sprague-Dawley rat at 5 mg/kg; format: ADME, organism-based; settings: in vivo
[10] = Clearance in Sprague-Dawley rat at 1 mg/kg, iv; format: ADME, organism-based; parameters: dose 1 mg/kg, route intravenous; settings: in vivo
Liver microsomes [11] = assay: Drug metabolism in human liver microsomes assessed as reactive metabolite formation at 10 uM after 30 mins by glutathione trapping assay; format: ADME, Microsome; settings: 0.5 h
Hepatitis C virus [12] = assay: Antiviral activity against HCV genotype 1b expressing NS4B V105L mutant transiently infected in human HuH7 cells after 48 hrs by luciferase reporter gene assay; format: functional, organism-based, Hepacivirus hominis; settings: Huh-7, 48 h
Hepatitis C virus [13] = assay: Antiviral activity against HCV genotype 1b expressing NS4B V105M mutant stably infected in human HuH7 cells after 48 hrs by luciferase reporter gene assay; format: functional, organism-based, Hepacivirus hominis; settings: Huh-7, 48 h
Cytochrome P450 1A2 = target: T1, Cytochrome P450 1A2 (Homo sapiens, UniProt P05177); assay: Inhibition of CYP1A2 in human liver microsomes after 10 mins by LC/MS/MS analysis; format: ADME, Microsome
T1 sequence (P05177 whole entry): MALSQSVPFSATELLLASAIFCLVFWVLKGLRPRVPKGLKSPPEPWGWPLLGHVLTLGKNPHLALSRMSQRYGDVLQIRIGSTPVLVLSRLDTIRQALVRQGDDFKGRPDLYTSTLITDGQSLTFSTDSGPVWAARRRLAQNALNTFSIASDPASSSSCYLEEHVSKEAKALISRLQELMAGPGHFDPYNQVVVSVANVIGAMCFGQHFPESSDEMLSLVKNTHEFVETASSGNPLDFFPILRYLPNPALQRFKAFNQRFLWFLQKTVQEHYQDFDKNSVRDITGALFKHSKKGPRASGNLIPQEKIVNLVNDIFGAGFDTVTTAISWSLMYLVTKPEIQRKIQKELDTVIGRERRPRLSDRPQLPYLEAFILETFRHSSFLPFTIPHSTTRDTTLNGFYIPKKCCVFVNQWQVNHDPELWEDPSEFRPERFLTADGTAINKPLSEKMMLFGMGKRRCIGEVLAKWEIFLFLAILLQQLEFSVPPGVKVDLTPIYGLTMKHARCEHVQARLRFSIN

Hepatitis C virus [14] = assay: Antiviral activity against HCV genotype 1b expressing NS4B H94R mutant transiently infected in human HuH7 cells after 48 hrs by luciferase reporter gene assay; format: functional, organism-based, Hepacivirus hominis; settings: Huh-7, 48 h
Hepatitis C virus [15] = assay: Antiviral activity against HCV genotype 1b expressing NS4B F98L mutant transiently infected in human HuH7 cells after 48 hrs by luciferase reporter gene assay; format: functional, organism-based, Hepacivirus hominis; settings: Huh-7, 48 h
Hepatitis C virus [16] = assay: Ratio of EC50 for HCV genotype 1b expressing NS4B V105N mutant to EC50 for wild type HCV genotype 1b; format: functional, Hepacivirus hominis
Hepatitis C virus [17] = assay: Antiviral activity against HCV genotype 1b expressing NS4B H94N mutant stably infected in human HuH7 cells after 48 hrs by luciferase reporter gene assay; format: functional, organism-based, Hepacivirus hominis; settings: Huh-7, 48 h
Cytochrome P450 2C9 = Cytochrome P450 2C9 (Homo sapiens, UniProt P11712); assay: Inhibition of CYP2C9 in human liver microsomes after 10 mins by LC/MS/MS analysis; format: ADME, Microsome
Cytochrome P450 2C9, sequence (P11712 whole entry): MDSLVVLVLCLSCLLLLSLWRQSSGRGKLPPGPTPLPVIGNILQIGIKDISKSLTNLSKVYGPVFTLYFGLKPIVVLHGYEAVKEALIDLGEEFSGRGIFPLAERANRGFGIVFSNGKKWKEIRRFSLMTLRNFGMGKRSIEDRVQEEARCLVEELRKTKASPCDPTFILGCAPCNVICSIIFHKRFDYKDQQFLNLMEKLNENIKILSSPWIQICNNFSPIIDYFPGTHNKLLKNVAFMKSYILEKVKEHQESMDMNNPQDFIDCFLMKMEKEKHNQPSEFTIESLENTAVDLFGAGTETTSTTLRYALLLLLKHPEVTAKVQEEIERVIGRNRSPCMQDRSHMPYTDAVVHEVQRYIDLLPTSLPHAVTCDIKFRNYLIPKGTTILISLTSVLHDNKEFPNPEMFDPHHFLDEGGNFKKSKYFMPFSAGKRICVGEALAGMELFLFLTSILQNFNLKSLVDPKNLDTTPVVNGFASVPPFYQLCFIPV

[18] = Clearance in beagle dog at 1 mg/kg, iv; format: ADME, organism-based, Canis lupus familiaris; parameters: dose 1 mg/kg, route intravenous; settings: in vivo
[19] = Volume of distribution at steady state in beagle dog at 1 mg/kg, iv; format: ADME, organism-based, Canis lupus familiaris; parameters: dose 1 mg/kg, route intravenous; settings: in vivo, read-out: Vdss
Hepatitis C virus [20] = assay: Antiviral activity against HCV genotype 1b expressing NS3 A156T mutant transiently infected in human HuH7 cells after 48 hrs by luciferase reporter gene assay; format: functional, organism-based, Hepacivirus hominis; settings: Huh-7, 48 h
[21] = Half life in beagle dog at 5 mg/kg, po; format: ADME, organism-based, Canis lupus familiaris; parameters: dose 5 mg/kg, route oral; settings: in vivo
Liver microsomes [22] = assay: Drug metabolism in rat liver microsomes assessed as reactive metabolite formation at 10 uM after 30 mins by glutathione trapping assay; format: ADME, Microsome; settings: 0.5 h
Cytochrome P450 2D6 = Cytochrome P450 2D6 (Homo sapiens, UniProt P10635); assay: Inhibition of CYP2D6 in human liver microsomes after 10 mins by LC/MS/MS analysis; format: ADME, Microsome
Cytochrome P450 2D6, sequence (P10635 whole entry): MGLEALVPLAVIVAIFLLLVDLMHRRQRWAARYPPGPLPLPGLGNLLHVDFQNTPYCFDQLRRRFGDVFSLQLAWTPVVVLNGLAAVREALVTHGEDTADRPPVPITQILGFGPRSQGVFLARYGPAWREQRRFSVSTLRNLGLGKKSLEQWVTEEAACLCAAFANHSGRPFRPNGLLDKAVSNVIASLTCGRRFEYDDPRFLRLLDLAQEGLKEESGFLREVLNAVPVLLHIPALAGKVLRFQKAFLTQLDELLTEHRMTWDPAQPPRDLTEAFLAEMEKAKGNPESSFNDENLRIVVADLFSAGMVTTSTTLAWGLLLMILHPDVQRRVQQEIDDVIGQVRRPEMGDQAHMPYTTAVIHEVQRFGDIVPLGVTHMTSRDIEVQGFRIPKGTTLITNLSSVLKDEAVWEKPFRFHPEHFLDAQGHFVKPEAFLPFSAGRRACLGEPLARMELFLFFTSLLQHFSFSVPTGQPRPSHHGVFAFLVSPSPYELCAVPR

Hepatitis C virus [23] = assay: Antiviral activity against HCV genotype 1b expressing NS5A L31V mutant transiently infected in human HuH7 cells after 48 hrs by luciferase reporter gene assay; format: functional, organism-based, Hepacivirus hominis; settings: Huh-7, 48 h
[24] = Oral bioavailability in beagle dog at 5 mg/kg; format: ADME, organism-based, Canis lupus familiaris; settings: in vivo
Cytochrome P450 2C19 = Cytochrome P450 2C19 (Homo sapiens, UniProt P33261); assay: Inhibition of CYP2C19 in human liver microsomes after 10 mins by LC/MS/MS analysis; format: ADME, Microsome
Cytochrome P450 2C19, sequence (P33261 whole entry): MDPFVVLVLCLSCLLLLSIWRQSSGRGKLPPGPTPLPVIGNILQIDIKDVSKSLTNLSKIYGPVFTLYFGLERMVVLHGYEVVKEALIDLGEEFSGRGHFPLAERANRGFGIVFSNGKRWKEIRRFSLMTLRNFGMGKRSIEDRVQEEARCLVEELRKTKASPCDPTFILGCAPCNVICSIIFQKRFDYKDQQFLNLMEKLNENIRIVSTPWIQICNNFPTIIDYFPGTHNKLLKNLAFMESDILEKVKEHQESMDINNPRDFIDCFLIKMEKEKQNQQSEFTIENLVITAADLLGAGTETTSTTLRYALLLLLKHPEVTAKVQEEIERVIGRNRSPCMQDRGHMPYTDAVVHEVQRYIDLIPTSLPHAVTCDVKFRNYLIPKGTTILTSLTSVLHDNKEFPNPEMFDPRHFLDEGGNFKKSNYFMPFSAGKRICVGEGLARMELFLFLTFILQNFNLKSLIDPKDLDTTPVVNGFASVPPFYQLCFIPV

Hepatitis C virus [25] = assay: Ratio of EC50 for HCV genotype 1b expressing NS4B H94N mutant to EC50 for wild type HCV genotype 1b; format: functional, Hepacivirus hominis
[26] = AUC (0 to 24 hrs) in beagle dog at 5 mg/kg, po; format: ADME, organism-based, Canis lupus familiaris; parameters: time < 24 hr, dose 5 mg/kg, route oral; settings: plasma
Hepatitis C virus [27] = assay: Antiviral activity against HCV genotype 1b expressing NS5B M414T mutant transiently infected in human HuH7 cells after 48 hrs by luciferase reporter gene assay; format: functional, organism-based, Hepacivirus hominis; settings: Huh-7, 48 h
Cytochrome P450 3A4 = Cytochrome P450 3A4 (Homo sapiens, UniProt P08684); assay: Inhibition of CYP3A4 in human liver microsomes after 7 mins by LC/MS/MS analysis; format: ADME, Microsome
Cytochrome P450 3A4, sequence (P08684 whole entry): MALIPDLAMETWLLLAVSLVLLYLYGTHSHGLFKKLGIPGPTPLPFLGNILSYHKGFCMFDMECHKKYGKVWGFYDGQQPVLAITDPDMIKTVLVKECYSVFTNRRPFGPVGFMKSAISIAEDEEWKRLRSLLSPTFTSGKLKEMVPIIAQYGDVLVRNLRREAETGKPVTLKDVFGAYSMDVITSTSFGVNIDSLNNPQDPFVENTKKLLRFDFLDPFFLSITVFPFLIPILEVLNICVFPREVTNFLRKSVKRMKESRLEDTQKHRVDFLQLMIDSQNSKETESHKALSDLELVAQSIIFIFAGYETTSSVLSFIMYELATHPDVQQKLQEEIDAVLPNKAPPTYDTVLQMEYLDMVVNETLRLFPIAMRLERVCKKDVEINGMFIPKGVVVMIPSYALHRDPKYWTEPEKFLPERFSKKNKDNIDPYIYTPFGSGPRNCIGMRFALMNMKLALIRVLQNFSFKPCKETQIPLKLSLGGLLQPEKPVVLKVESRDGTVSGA

O=C(c1nc2c(C(F)(F)F)cc(-c3cn[nH]c3)cn2c1Br)N1CCC(c2cccs2)C1 (stereo unspecified)
EC50 (Hepatitis C virus [1]): < 55 nM | Kapp (Hepatitis C virus [2]): 76 nM | EC50 (Hepatitis C virus [3]): < 55 nM

O=C(c1nc2c(C(F)(F)F)cc(-c3ccoc3)cn2c1Cl)N1CCC(N2C(=O)COC2=O)CC1
half-life [4]: 3 h | IC50 (Hepatitis C virus [5]): 35 nM | Vd [6]: 3.1 L/kg | AUC(0-t) at 24 h [7]: 1100 ng·h/mL | EC50 (Hepatitis C virus [1]): 51 nM | solubility [8]: > 500 µM | EC50 (Hepatitis C virus [3]): 20 nM | bioavailability [9]: 60% | clearance [10]: 46 mL/min/kg

CC1(C)COC(=O)N1C1CCN(C(=O)c2nc3c(C(F)(F)F)cc(-c4ccoc4)cn3c2Cl)CC1
IC50 (Hepatitis C virus [5]): 9000 nM | EC50 (Hepatitis C virus [1]): 31000 nM | solubility [8]: > 500 µM | EC50 (Hepatitis C virus [3]): 33000 nM

O=C(c1nc2c(C(F)(F)F)cc(-c3ccoc3)cn2c1Cl)N1CCN([C@H]2CC[C@H](O)CC2)C(=O)C1
IC50 (Hepatitis C virus [5]): 43 nM | EC50 (Hepatitis C virus [1]): 9.7 nM | solubility [8]: > 500 µM | EC50 (Hepatitis C virus [3]): 0.9 nM

CC(C)c1cc(C(F)(F)F)c2nc(C(=O)N3CCC(N4CCOC4=O)CC3)c(Cl)n2c1
EC50 (Hepatitis C virus [1]): < 55 nM | Kapp (Hepatitis C virus [2]): 30 nM | EC50 (Hepatitis C virus [3]): < 55 nM

O=C(c1nc2c(C(F)(F)F)cc(-c3ccoc3)cn2c1Cl)N1CCN(c2ccccc2)CC1
IC50 (Hepatitis C virus [5]): 20 nM | EC50 (Hepatitis C virus [1]): 1600 nM | EC50 (Hepatitis C virus [3]): 450 nM

[3H]CC([3H])(C)c1cc(C(F)(F)F)c2nc(C(=O)N3CCC(N4CCOC4=O)CC3)c(Cl)n2c1 (stereo unspecified)
IC50 (Hepatitis C virus [5]): 30 nM

O=C(c1nc2c(C(F)(F)F)cc(C3CC3)cn2c1Cl)N1CCN([C@H]2CC[C@H](O)CC2)C(=O)C1
Drug metabolism (Liver microsomes [11]): Not Active | half-life [4]: 3 h | EC50 (Hepatitis C virus [12]): 38 nM | EC50 (Hepatitis C virus [13]): 800 nM | inhibition (INH) (Cytochrome P450 1A2): Not Active | EC50 (Hepatitis C virus [14]): 53 nM | EC50 (Hepatitis C virus [15]): 27 nM | Ratio EC50 (Hepatitis C virus [16]): >100 | EC50 (Hepatitis C virus [17]): 200 nM | IC50 (Hepatitis C virus [5]): 60 nM | inhibition (INH) (Cytochrome P450 2C9): Not Active | clearance [18]: 1.1 mL/min/kg | Vd [6]: 4.1 L/kg | AUC(0-t) at 24 h [7]: 3800 ng·h/mL | EC50 (Hepatitis C virus [1]): 5.4 nM | solubility [8]: > 500 µM | Vd [19]: 0.9 L/kg | EC50 (Hepatitis C virus [3]): 0.81 nM | bioavailability [9]: 98% | EC50 (Hepatitis C virus [20]): 1 nM | half-life [21]: 10 h | Drug metabolism (Liver microsomes [22]): Not Active | inhibition (INH) (Cytochrome P450 2D6): Not Active | EC50 (Hepatitis C virus [23]): 1 nM | bioavailability [24]: 65% | clearance [10]: 20 mL/min/kg | inhibition (INH) (Cytochrome P450 2C19): Not Active | Ratio EC50 (Hepatitis C virus [25]): >100 | AUC(0-t) at 24 h [26]: 52000 ng·h/mL | EC50 (Hepatitis C virus [27]): 1 nM | inhibition (INH) (Cytochrome P450 3A4): Not Active

O=C(c1nc2c(C(F)(F)F)cc(-c3ccoc3)cn2c1Cl)N1CCC(c2ccncc2)C1 (racemic)
IC50 (Hepatitis C virus [5]): 25 nM | EC50 (Hepatitis C virus [1]): 270 nM | EC50 (Hepatitis C virus [3]): 380 nM

CC1(C)CN(C2CCN(C(=O)c3nc4c(C(F)(F)F)cc(-c5ccoc5)cn4c3Cl)CC2)C(=O)O1
IC50 (Hepatitis C virus [5]): 220 nM | EC50 (Hepatitis C virus [1]): 76000 nM | solubility [8]: > 500 µM | EC50 (Hepatitis C virus [3]): 9900 nM

O=C(c1nc2c(C(F)(F)F)cc(-c3ccoc3)cn2c1Cl)N1CCC(N2CCOC2=O)CC1
Drug metabolism (Liver microsomes [11]): Not Active | half-life [4]: 1.9 h | inhibition (INH) (Cytochrome P450 1A2): Not Active | IC50 (Hepatitis C virus [5]): 150 nM | inhibition (INH) (Cytochrome P450 2C9): Not Active | Vd [6]: 2.5 L/kg | AUC(0-t) at 24 h [7]: 700 ng·h/mL | EC50 (Hepatitis C virus [1]): 18 nM | solubility [8]: > 500 µM | EC50 (Hepatitis C virus [3]): 7.4 nM | bioavailability [9]: 60% | Drug metabolism (Liver microsomes [22]): Not Active | inhibition (INH) (Cytochrome P450 2D6): Not Active | clearance [10]: 72 mL/min/kg | inhibition (INH) (Cytochrome P450 2C19): Not Active | inhibition (INH) (Cytochrome P450 3A4): Not Active
